Test in all cases: NCI anticancer screen, dose series, 48 h
Test [1] has as its system DLD-1.
In test [2] the test system is XF498.
The test system of test [3] is SNB-78.
The test system of test [4] is RXF 631.
In test [5] the test system is LXFL 529.
The test system of test [6] is M19-MEL.
For test [7], the system named is DMS-273.
The subject of test [8] is HOP-18.
Test [9] deals with KM-20L2.

The structures appear in SMILES notation.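 These data come from cells grown in 96-well plates and exposed to compound for 48 hours at five concentrations. At the GI50, growth is halved.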 Calls of active or inactive are those of the source. Cut-off read from the data, not from the text of the source: active = GI50 up to about 1.1 µM and inactive = higher. Where only a bound is given, the exact number is not on record here.

For `COc1ccc(OC)c(/C=N/N=C(\N)NO)c1`, the GI50 in test [1] was 17.2 µM (inactive); in [2], 18 µM (inactive); in test [3], 82.6 µM (inactive); in test [4] it was 37.6 µM (inactive); in test [5], 4.57 µM (inactive); in [6] it was 61 µM (inactive). The GI50 in test [7] was 6.31 µM (inactive).
Regarding `CC(C)(C)c1ccc(OCCOCCOc2ccc(C(C)(C)C)cc2S(=O)(=O)Nc2ccc([N+](=O)[O-])cc2)c(S(=O)(=O)Nc2ccc([N+](=O)[O-])cc2)c1`, the GI50 in test [1] is 38.6 µM (inactive); in test [3], 15.2 µM (inactive); in [4] it was 6.82 µM (inactive); in test [8] it was 9.75 µM (inactive); in test [6], 6.11 µM (inactive); in test [7], 7.94 µM (inactive).
Regarding `COc1ccccc1/C=C(\NC(=O)c1ccccc1)c1nc2ccccc2[nH]1`, the GI50 in test [9] is 59.8 µM (inactive); in [1], 37.3 µM (inactive); in test [2] it was 36.1 µM (inactive); in test [3], 53.3 µM (inactive); in test [4], > 100 µM (inactive); in [5] it was 29.9 µM (inactive). In addition, the GI50 is 46.3 µM (inactive) in [8] and 38.3 µM (inactive) in test [6].
As for `CC(Oc1ccc(OCC2CCCCC2)cc1)C(=O)O` (configuration not stated), the GI50 in [1], in test [2], in test [3], in test [5], in test [8] and in test [6] was > 100 µM (inactive) each time. Further, the GI50 in test [7] is > 100 µM (inactive).
For the compound `Cc1cc(C)nc(NS(=O)(=O)c2ccc(Nc3c4ccccc4nc4c(C(=O)Nc5ccc(S(N)(=O)=O)cc5)cccc34)cc2)n1`, the GI50 in [9] is > 100 µM (inactive); in [1], 71.8 µM (inactive); in [2] it was > 100 µM (inactive); in test [3], > 100 µM (inactive); in [5], 88.9 µM (inactive); in [8], 51.6 µM (inactive). Further, the results for the GI50 in test [6] and in [7] were 94.2 µM (inactive) and 92.5 µM (inactive), respectively.
Regarding `C[C@H]1C=C2C(=O)O[C@H]3CC[C@@H](C1)[C@@]23O`, the GI50 was 4.91 µM (inactive) in [9]; 2.7 µM (inactive) in test [1]; 2.82 µM (inactive) in [3]; 2.93 µM (inactive) in test [5]; 3.18 µM (inactive) in test [8]; 3.76 µM (inactive) in [6].
`O=C(Nc1nc2ncn(CCI)c2c(=O)[nH]1)c1ccccc1`: the GI50 in test [9] was > 100 µM (inactive); in [2], 20.4 µM (inactive); in test [3], > 56.1 µM (inactive); in test [4], > 100 µM (inactive); in test [5], > 100 µM (inactive); in test [8], > 56.1 µM (inactive). Also, the GI50 in [6] and in [7] was > 100 µM (inactive) each time.
Regarding `CC(=O)OC1CCC2C(=CCC3C2(C)C(=O)CC2(C)C(C4(C)OC(C(C)C)=CC4=O)C(O)CC32C)C1(C)C` (configuration not stated), the GI50 is 17.9 µM (inactive) in [9]; 32.5 µM (inactive) in [1]; 31.3 µM (inactive) in test [2]; 78.3 µM (inactive) in test [3]; 31.3 µM (inactive) in test [5]; 12.6 µM (inactive) in test [6]. The GI50 in test [7] was 23.3 µM (inactive).
In the case of `O=C(Nc1ccccc1[N+](=O)[O-])C(=O)C(C(=O)c1ccccc1-c1ccccc1)C1OC(=O)c2ccccc21` (configuration not stated), the GI50 in test [9] is 18.2 µM (inactive); in [1], 21.4 µM (inactive); in test [3] it was 20.1 µM (inactive); in test [4], 13.4 µM (inactive); in test [5], 11 µM (inactive); in test [8], 14.1 µM (inactive). Moreover, the GI50 in [6] is 12.6 µM (inactive); in test [7], 14.3 µM (inactive).
In the case of `CCCCc1c2c(nc3c1CCc1cc(C=O)c(N)nc1-3)/C(=C/c1ccccc1)CCC2`, the GI50 was > 100 µM (inactive) in test [9]; 44.4 µM (inactive) in [2]; > 100 µM (inactive) in test [3]; > 100 µM (inactive) in test [5]; > 100 µM (inactive) in test [8]; > 100 µM (inactive) in test [6]. The GI50 in test [7] is > 100 µM (inactive).
As to `COc1cc(/C=C/c2ccncc2)cc(OC)c1OC`, the GI50 in test [9] was 65.5 µM (inactive); in test [1] it was > 100 µM (inactive); in test [2], 22.4 µM (inactive); in test [3], 96.2 µM (inactive); in test [4], 31.6 µM (inactive); in [5] it was 55 µM (inactive). Moreover, the GI50 in [8] was 70.8 µM (inactive); in test [7] it was 96.6 µM (inactive).
For the compound `Cc1ccc(Sc2ccccc2N)cc1`, the GI50 in test [9] was 39.9 µM (inactive); in test [3], 84.7 µM (inactive); in [4], 29 µM (inactive); in test [5], 16.8 µM (inactive); in test [8], 77.8 µM (inactive); in test [6], 41.6 µM (inactive). In addition, the GI50 in test [7] was 30.8 µM (inactive).
With `O=C1c2cccc3cc([N+](=O)[O-])cc(c23)C(=O)N1CCNCCNCCNCCN1C(=O)c2cccc3cc([N+](=O)[O-])cc(c23)C1=O`, the GI50 in test [9] was 0.01 µM (active); in [1], < 0.001 µM (active); in test [3], 0.0553 µM (active); in test [5], 0.01 µM (active); in test [8], 0.149 µM (active); in test [7], < 0.001 µM (active).
For `N#CC(C(=O)C(=O)Nc1c(Cl)cccc1Cl)c1ccccc1` (configuration not stated), the GI50 in test [9] is > 10 µM (inactive); in test [1], > 10 µM (inactive); in test [2] it was > 100 µM (inactive); in [3] it was > 10 µM (inactive); in test [4], > 10 µM (inactive); in test [5], > 10 µM (inactive). The GI50 in [8], in [6] and in test [7] was > 10 µM (inactive) in each case.
For `CC(O)C(NC(=O)c1ccccc1)C(=O)N(Cc1ccccc1)Cc1ccccc1` (configuration not stated), the GI50 in test [9], in [1], in test [2], in test [3], in test [4] and in test [5] was > 100 µM (inactive) in each case. For the same compound, the GI50 is 37 µM (inactive) in [8], > 100 µM (inactive) in test [6] and > 100 µM (inactive) in [7].
Turning to `CCc1cccc(C(C)C)c1NC(=O)CCl`, the GI50 in test [9] was > 100 µM (inactive); in test [1], > 100 µM (inactive); in [2], > 100 µM (inactive); in [3], > 100 µM (inactive); in test [4], 19.7 µM (inactive); in test [5] it was > 100 µM (inactive). In addition, the GI50 was 58.3 µM (inactive) in test [6] and > 100 µM (inactive) in [7].
For `CCOC(=O)NC/C=C/CO`, the GI50 in [9], in test [1], in [3], in test [4], in test [5] and in test [8] was > 100 µM (inactive) throughout. The GI50 in test [6] and in [7] was > 100 µM (inactive) each time.
As for `CCC12C=CCN3CCC4(C(=C(C(=O)OC)[C@@H]1O)Nc1ccccc14)C32` (some centres not stated), the GI50 is 1.84 µM (inactive) in test [9]; 1.67 µM (inactive) in test [1]; 1.63 µM (inactive) in [2]; 2.8 µM (inactive) in test [3]; 1.66 µM (inactive) in test [5]; 1.71 µM (inactive) in [8]. In addition, the results for the GI50 in [6] and in test [7] were 1.74 µM (inactive) and 1.69 µM (inactive), respectively.
For `C[S+]([O-])c1cc(=O)c2ccccc2s1` (configuration not stated), the GI50 in [9] is 6.25 µM (inactive); in test [1] it was 2.14 µM (inactive); in test [2], 4.1 µM (inactive); in test [3] it was 7.52 µM (inactive); in test [5] it was 1.54 µM (inactive); in test [8], 10.3 µM (inactive). In addition, the figures for the GI50 in test [6] and in test [7] were 6.03 µM (inactive) and 8.67 µM (inactive), respectively.
Take `Cc1c(Cl)cccc1NC(=O)C(=O)c1c(O)c2ccc(O)cc2oc1=O`: the GI50 in test [9], in [1], in [2], in [3], in test [5] and in test [8] was > 100 µM (inactive) each time. Also, the GI50 in test [6] and in [7] was > 100 µM (inactive) in each case.
Take `Cc1ccc(-n2cc(/C(N)=N/O)c3ccccc3c2=O)cc1`: the GI50 in test [9], in test [2], in test [5], in [6] and in test [7] was > 100 µM (inactive) in each case.
With `COc1cc2c(c(O)c1C)C(=O)C(Cl)=CC2=O`, the GI50 in test [9] is 23.1 µM (inactive); in test [1], 17.4 µM (inactive); in [2], 20 µM (inactive); in [3], 12.8 µM (inactive); in test [4] it was 12.1 µM (inactive); in test [5], 7.43 µM (inactive). Also, the GI50 is 16.5 µM (inactive) in test [8], 7.98 µM (inactive) in test [6] and 19.2 µM (inactive) in test [7].
In the case of `CC(=O)OCSc1ncnc2c1ncn2CN1CCOCC1`, the GI50 in test [9] was 7.59 µM (inactive); in [1] it was 6.55 µM (inactive); in test [3] it was > 100 µM (inactive); in test [5] it was > 100 µM (inactive); in [8] it was 40.1 µM (inactive); in [6], 59 µM (inactive). Also, the GI50 in [7] was 5.11 µM (inactive).

The values are drawn from ChEMBL document CHEMBL1201862, “PubChem BioAssay data set” (2004).
